{"source": "patent US9849104B2", "about": "(Gemphire Therapuetics Inc., priority 2015, dated 2017)", "key": {"[1]": {"test": "Musculoskeletal adverse events, study A4141001", "format": "in vivo, human"}, "[2]": {"system": "STAM model of non-alcoholic steatohepatitis (NASH)", "description": "Telmisartan (Micardis®) was purchased from Boehringer Ingelheim GmbH (Germany) and dissolved in pure water.\nTelmisartan was administered at a dose of 10 mg/kg once daily.\nEight-hour fasting blood glucose was measured in whole blood using Life Check (EIDIA Co. Ltd., Japan). For plasma biochemistry, eight-hour fasting blood was collected in polypropylene tubes with anticoagulant (Novo-Heparin, Mochida Pharmaceutical, Japan) and centrifuged at 1,000×g for 15 minutes at 4° C. The supernatant was collected and stored at −80° C. until use. Plasma insulin levels were quantified by Ultra Sensitive Mouse Insulin ELISA kit (Morinaga Institute of Biological Science, Inc., Japan).\nOn the day of termination, non-fasting blood glucose was measured in whole blood using Life Check. For plasma biochemistry, non-fasting blood was collected in polypropylene tubes with anticoagulant (Novo-Heparin) and centrifuged at 1,000×g for 15 minutes at 4° C. The supernatant was collected and stored at −80° C. until use. Plasma ALT, AST, ALP, GGT, BUN, creatinine and total bilirubin levels were measured by FUJI DRI-CHEM 7000 (Fujifilm Corporation, Japan). Plasma ketone body levels were quantified by EnzyChrom™ Ketone Body Assay Kit (BioAssay Systems, USA).\nLiver samples were homogenized in chloroform-methanol (2:1, v/v) and incubated overnight at room temperature. After washing with chloroform-methanol-water (8:4:3, v/v/v), the extracts were evaporated to dryness, and dissolved in isopropanol. Liver triglyceride content was measured by Triglyceride E-test (Wako Pure Chemical Industries). […]\nStatistical analyses were performed using Bonferroni Multiple Comparison Test on GraphPad Prism 6 (GraphPad Software Inc., USA). […] Results were expressed as mean±SD.\nThe viability, clinical signs and behavior were monitored daily. Body weight was recorded before the treatment. […] The animals were sacrificed by exsanguinations through direct cardiac puncture under isoflurane anesthesia (Pfizer Inc.) at 9 weeks of age."}, "[3]": {"settings": "male, Wistar, rat, in vivo, po, 10 mg/kg", "description": "Dose solution was prepared by dissolving labeled drug in 0.45 mL ethanol and 4.05 mL 0.5% methylcellulose in water. […] Final specific activity of dose solution was 10.37 μCi/mg.\nMale Wistar rats with an average weight of 202 g were fasted overnight prior to dosing. […] Carcasses were rapidly frozen in dry ice/hexane mixture and prepared for whole body sectioning and autoradiography. Sections of 50 μm thickness were air dried at −20° C. and applied to BioMax scientific imaging film (Eastman Kodak, Rochester, N.Y.) or phosphor imaging plates for autoradiographic exposure (Molecular Dynamics, Sunnyvale, Calif.). Carbon-14 standards (American Radiolabeled Chemicals, St. Louis) were included on representative films and plates for calibration of the analyzer. Processed films were digitized with the analyzer scanner (Loats INQUIRY image analysis system, Loats Associates, Westminster, Md.), and radioactivity remaining in tissues was determined by quantitative video densitometric analysis of digital images. Imaging plates were scanned after 1-week exposure. Resulting electronic images were used for preliminary evaluation of distribution."}, "[4]": {"settings": "A4141001, patient type IIa + IIb"}}, "note": "Read-outs that look alike come from different tables or passages of the source.", "data": [{"smiles": "CC(C)c1c(C(=O)Nc2ccccc2)c(-c2ccccc2)c(-c2ccc(F)cc2)n1CC[C@@H](O)C[C@@H](O)CC(=O)O", "note": "[Atorvastatin, reference compound]", "values": [{"measurement": "% = the percent of patients experiencing a musculoskeletal adverse event", "setting": "[1]; A4141001, patient type IIa", "result": 9.1, "unit": "%"}, {"measurement": "No = the number of muscle skeletal adverse events", "setting": "[1]; A4141001, patient type IIa", "result": 2}, {"measurement": "% = the percent of patients experiencing a musculoskeletal adverse event", "setting": "[1]; [4]", "result": 13.5, "unit": "%"}, {"measurement": "No = the number of muscle skeletal adverse events", "setting": "[1]; [4]", "result": 7}, {"measurement": "% = the percent of patients experiencing a musculoskeletal adverse event", "setting": "[1]; A4141001, patient type IIb", "result": 16.7, "unit": "%"}, {"measurement": "No = the number of muscle skeletal adverse events", "setting": "[1]; A4141001, patient type IIb", "result": 5}]}, {"smiles": "CCCc1nc2c(C)cc(-c3nc4ccccc4n3C)cc2n1Cc1ccc(-c2ccccc2C(=O)O)cc1", "note": "[Telmisartan, reference compound]", "values": [{"measurement": "NAFLD Activity score, NAS (mean ± SD)", "setting": "[2]; STAM NASH mice, 10 mg/kg PO QD 6-9 wks, 10 mg/kg", "result": "significant reduction"}, {"measurement": "mortality during the treatment period", "setting": "[2]; STAM NASH mice, 10 mg/kg PO QD, before reaching Day 21", "result": "one mouse was found dead"}, {"measurement": "Fasting blood glucose (mean ± SD)", "setting": "[2]; STAM NASH mice, 10 mg/kg PO QD, Day 18, 8 hours of fasting, listed as telemisartan, 10 mg/kg", "result": "significant increase"}, {"measurement": "Liver triglyceride (mean ± SD)", "setting": "[2]; STAM NASH mice, 10 mg/kg PO QD, Day 21, listed as telemisartan, 10 mg/kg", "result": "significant decrease"}, {"measurement": "Non-fasting blood glucose (mean ± SD)", "setting": "[2]; STAM NASH mice, 10 mg/kg PO QD, termination (Day 21), listed as telemisartan, 10 mg/kg", "result": "significant increase"}, {"measurement": "fibrosis area compared with the Vehicle in NASH group", "setting": "[2]; STAM NASH mice, all treatment groups (gemcabene 30, 100, 300 mg/kg; telmisartan 10 mg/kg)", "result": "significantly decreased"}, {"measurement": "Plasma ALP (mean ± SD)", "setting": "[2]; mouse, in vivo, po, 10 mg/kg", "result": "significant increases"}, {"measurement": "Plasma BUN (mean ± SD)", "setting": "[2]; mouse, in vivo, po, 10 mg/kg", "result": "significant increase"}, {"measurement": "Plasma GGT (mean ± SD)", "setting": "[2]; mouse, in vivo, po, 10 mg/kg", "result": "1 ± 0", "unit": "U/L"}, {"measurement": "Plasma creatinine (mean ± SD)", "setting": "[2]; mouse, in vivo, po, 10 mg/kg", "result": "0.1 ± 0.0", "unit": "mg/dL"}]}, {"smiles": "CC(C)(CCCCOCCCCC(C)(C)C(=O)O)C(=O)O", "note": "[[14C] gemcabene]", "values": [{"measurement": "radioequivalents remaining in Adrenal", "setting": "[3]; 1 h", "result": 6.05, "unit": "μg equivalents/g"}, {"measurement": "radioequivalents remaining in Blood", "setting": "[3]; 1 h", "result": 15.46, "unit": "μg equivalents/g"}, {"measurement": "radioequivalents remaining in Brain", "setting": "[3]; 1 h", "result": 0.41, "unit": "μg equivalents/g"}, {"measurement": "radioequivalents remaining in Kidney", "setting": "[3]; 1 h", "result": 18.75, "unit": "μg equivalents/g"}, {"measurement": "radioequivalents remaining in Liver", "setting": "[3]; 1 h", "result": 35.78, "unit": "μg equivalents/g"}, {"measurement": "radioequivalents remaining in Lung", "setting": "[3]; 1 h", "result": 11.69, "unit": "μg equivalents/g"}, {"measurement": "radioequivalents remaining in Muscle", "setting": "[3]; 1 h", "result": 1.35, "unit": "μg equivalents/g"}, {"measurement": "radioequivalents remaining in Adrenal", "setting": "[3]; 4 h", "result": 4.76, "unit": "μg equivalents/g"}, {"measurement": "radioequivalents remaining in Blood", "setting": "[3]; 4 h", "result": 13.65, "unit": "μg equivalents/g"}, {"measurement": "radioequivalents remaining in Brain", "setting": "[3]; 4 h", "result": 0.47, "unit": "μg equivalents/g"}, {"measurement": "radioequivalents remaining in Kidney", "setting": "[3]; 4 h", "result": 17.84, "unit": "μg equivalents/g"}, {"measurement": "radioequivalents remaining in Liver", "setting": "[3]; 4 h", "result": 37.08, "unit": "μg equivalents/g"}, {"measurement": "radioequivalents remaining in Lung", "setting": "[3]; 4 h", "result": 10.15, "unit": "μg equivalents/g"}, {"measurement": "radioequivalents remaining in Muscle", "setting": "[3]; 4 h", "result": 1.40, "unit": "μg equivalents/g"}, {"measurement": "radioequivalents remaining in Adrenal", "setting": "[3]; 8 h", "result": 4.29, "unit": "μg equivalents/g"}, {"measurement": "radioequivalents remaining in Blood", "setting": "[3]; 8 h", "result": 9.75, "unit": "μg equivalents/g"}, {"measurement": "radioequivalents remaining in Brain", "setting": "[3]; 8 h", "result": 0.43, "unit": "μg equivalents/g"}, {"measurement": "radioequivalents remaining in Kidney", "setting": "[3]; 8 h", "result": 16.44, "unit": "μg equivalents/g"}, {"measurement": "radioequivalents remaining in Liver", "setting": "[3]; 8 h", "result": 27.42, "unit": "μg equivalents/g"}, {"measurement": "radioequivalents remaining in Lung", "setting": "[3]; 8 h", "result": 7.59, "unit": "μg equivalents/g"}, {"measurement": "radioequivalents remaining in Muscle", "setting": "[3]; 8 h", "result": 0.99, "unit": "μg equivalents/g"}, {"measurement": "radioequivalents remaining in Adrenal", "setting": "[3]; 24 h", "result": 1.42, "unit": "μg equivalents/g"}, {"measurement": "radioequivalents remaining in Blood", "setting": "[3]; 24 h", "result": 4.69, "unit": "μg equivalents/g"}, {"measurement": "radioequivalents remaining in Brain", "setting": "[3]; 24 h", "result": 0.24, "unit": "μg equivalents/g"}, {"measurement": "radioequivalents remaining in Kidney", "setting": "[3]; 24 h", "result": 17.45, "unit": "μg equivalents/g"}, {"measurement": "radioequivalents remaining in Liver", "setting": "[3]; 24 h", "result": 24.35, "unit": "μg equivalents/g"}, {"measurement": "radioequivalents remaining in Lung", "setting": "[3]; 24 h", "result": 3.58, "unit": "μg equivalents/g"}, {"measurement": "radioequivalents remaining in Muscle", "setting": "[3]; 24 h", "result": 0.45, "unit": "μg equivalents/g"}, {"measurement": "radioequivalents remaining in Adrenal", "setting": "[3]; 48 h", "result": 0.22, "unit": "μg equivalents/g"}, {"measurement": "radioequivalents remaining in Blood", "setting": "[3]; 48 h", "result": 0.44, "unit": "μg equivalents/g"}, {"measurement": "radioequivalents remaining in Kidney", "setting": "[3]; 48 h", "result": 7.23, "unit": "μg equivalents/g"}, {"measurement": "radioequivalents remaining in Liver", "setting": "[3]; 48 h", "result": 3.64, "unit": "μg equivalents/g"}, {"measurement": "radioequivalents remaining in Lung", "setting": "[3]; 48 h", "result": 0.36, "unit": "μg equivalents/g"}, {"measurement": "radioequivalents remaining in Kidney", "setting": "[3]; 96 h", "result": 0.83, "unit": "μg equivalents/g"}, {"measurement": "radioequivalents remaining in Liver", "setting": "[3]; 96 h", "result": 0.24, "unit": "μg equivalents/g"}]}]}
